Data: the supplement of paper PMC10307832

What was measured:
Assay in all cases: relative viability (nuclei count vs DMSO), 5 days (fraction); higher = more cells survive
Bortezomib + Pemetrexed = compound: CC(C)C[C@H](NC(=O)[C@H](Cc1ccccc1)NC(=O)c1cnccn1)B(O)O [Bortezomib] + Nc1nc2[nH]cc(CCc3ccc(C(=O)N[C@@H](CCC(=O)O)C(=O)O)cc3)c2c(=O)[nH]1 [Pemetrexed] (partner 0.2 µM)
In short: (§1)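 A single step with final 0.05% Triton X-100, 1% formaldehyde and 1 ug/ml Hoechst fixed the cells and stained nuclei 5 days after treatment. Lung cancer cell lines in 1536-well plates had been treated by pin tool the day after seeding with one drug alone or a fixed anchor-drug dose plus five library-drug doses (not always all listed) in √10 steps, and nuclei were counted on 4× images. Relative viability is the ratio of nuclei in treated wells to nuclei in vehicle wells, taken as the median of duplicate plates.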

[1] = compound: CC1=CC(=NN1)NC2=CC(=NC(=N2)/C=C/C3=CC=CC=C3)N4CCN(CC4)C + N=C(N)NC(=N)NCCc1ccccc1 [Phenformin] (partner 250 µM)
In short: as §1

Bortezomib + Navitoclax = compound: CC(C)C[C@H](NC(=O)[C@H](Cc1ccccc1)NC(=O)c1cnccn1)B(O)O [Bortezomib] + CC1(C)CCC(c2ccc(Cl)cc2)=C(CN2CCN(c3ccc(C(=O)NS(=O)(=O)c4ccc(N[C@H](CCN5CCOCC5)CSc5ccccc5)c(S(=O)(=O)C(F)(F)F)c4)cc3)CC2)C1 [Navitoclax] (partner 0.5 µM)
In short: as §1

[2] = compound: CC1=CC(=NN1)NC2=CC(=NC(=N2)/C=C/C3=CC=CC=C3)N4CCN(CC4)C + CC(C)C[C@H](NC(=O)[C@H](Cc1ccccc1)NC(=O)c1cnccn1)B(O)O [Bortezomib] (partner 0.002 µM)
In short: as §1

Cell Line	relative viability (Bortezomib + Pemetrexed; first compound 0.0002 µM)	relative viability (Bortezomib + Pemetrexed; first compound 0.000632 µM)	relative viability (Bortezomib + Pemetrexed; first compound 0.002 µM)	relative viability (Bortezomib + Pemetrexed; first compound 0.006325 µM)	relative viability (Bortezomib + Pemetrexed; first compound 0.02 µM)	relative viability ([1]; first compound 0.08 µM)	relative viability ([1]; first compound 0.253 µM)	relative viability ([1]; first compound 0.8 µM)	relative viability ([1]; first compound 2.53 µM)	relative viability ([1]; first compound 8 µM)	relative viability (Bortezomib + Navitoclax; first compound 0.0002 µM)	relative viability (Bortezomib + Navitoclax; first compound 0.000632 µM)	relative viability (Bortezomib + Navitoclax; first compound 0.002 µM)	relative viability (Bortezomib + Navitoclax; first compound 0.006325 µM)	relative viability (Bortezomib + Navitoclax; first compound 0.02 µM)	relative viability ([2]; first compound 0.08 µM)	relative viability ([2]; first compound 0.253 µM)	relative viability ([2]; first compound 0.8 µM)	relative viability ([2]; first compound 2.53 µM)	relative viability ([2]; first compound 8 µM)
HCC-78	0.786	0.89	0.932	0.887	0.902	0.647	0.704	0.722	0.381	0.293	0.766	0.794	0.467	0.16	0.178	0.456	0.636	0.582	0.559	0.214
HCC-366	0.149	0.173	0.207	0.149	0.0543	0.63	0.7	0.62	0.189	0.0317	0.945	1.03	1.04	0.949	0.0281	0.993	1.18	1.03	0.0189	0.0155
HCC-827	0.265	0.254	0.219	0.234	0.247	0.39	0.402	0.435	0.401	0.216	1.05	1.03	0.768	0.979	0.0957	1.03	1.13	0.951	0.923	0.641
HOP-62	0.257	0.321	0.445	0.223	0.0603	0.713	0.758	0.688	0.459	0.26	1.17	1.05	0.747	0.243	0.074	0.9	0.549	1.07	0.403	0.107
IA-LM											1.07	0.865	0.994	0.0167	0.0073	0.74	0.897	1.14	0.463	0.121
LCLC-103H	0.46	0.483	0.47	0.559	0.317	0.344	0.34	0.333	0.326	0.232						0.997	1.19	1.08	0.877	0.675
LK-2	0.285	0.324	0.221	0.365	0.28	0.313	0.327	0.309	0.111	0.117	0.828	0.878	0.238	0.172	0.174					
NCI-H358	0.163	0.182	0.171	0.104	0.0993	0.272	0.377	0.229	0.0644	0.0549										
NCI-H522	1.29	1.04	1.08	0.442	0.35	0.664	0.632	0.712	0.544	0.484										
NCI-H661	0.887	0.89	0.88	0.594	0.23	0.282		0.265	0.226	0.211						0.741	0.906	0.839	0.669	0.203
NCI-H727						0.398		0.41	0.295	0.17	0.455	0.511	0.541	0.167	0.103	0.841	0.586	0.867	0.463	0.255
NCI-H1299											0.981	0.988	1.01	0.397	0.142	1	1.05	1	0.854	0.211
NCI-H1395	0.77	0.767	0.579	0.26	0.264	0.494	0.434	0.427	0.327	0.264	1.27	1.52	0.448	0.39	0.345					
NCI-H1563	0.885	0.848	0.744	0.809	0.575	0.726	0.659	0.664	0.592	0.43						0.943	0.874	0.863	0.714	0.428
NCI-H1623						0.6	0.615	0.583	0.563	0.343										
NCI-H1648	0.62	0.592	0.753	0.468	0.334															
NCI-H1703											1.21	1.01	0.188	0.139	0.085	0.261	0.319	0.236	0.174	0.117
NCI-H1793	0.762		0.867	0.616	0.211	0.344	0.423	0.314	0.132	0.121	0.418	0.463	0.599	0.409	0.149					
NCI-H1944	0.564	0.546	0.636	0.47	0.151	0.195	0.225	0.186	0.166	0.119	1.06	0.992	1.12	1.05	0.887					
NCI-H2170	0.271	0.256	0.286	0.263	0.136	0.44	0.388	0.382	0.32	0.204	0.425	0.548	0.6	0.169	0.172					
NCI-H2342	0.801	0.783	0.739	0.752	0.712	0.523	0.597	0.565	0.604	0.245										
SK-MES-1	0.956	1.02	0.915	0.211	0.167	0.664	0.682	0.601	0.147	0.124	1.24	1.28	1.22	0.198	0.146					
SW 900	0.476	0.485	0.224	0.169	0.152	0.467	0.529	0.6	0.172	0.0691										
